The experiment deals with StAR promoter luciferase reporter cells, luminescence inhibition. As to the kind of experiment: nonselective StAR promoter luciferase inhibitors – cell-based, luminescence, dose response, counter-screen for LRH-1 inverse agonist project, late-stage follow-up (AID 651975).

Calls of active or inactive are those of the source. How the calls were made is not given here. A value given as a limit tells only on which side of the number the result lay.

A word on the IC50: it is the concentration needed to halve the response being measured.

Take `CCOc1ccc(NC(=O)CSc2nncc(=O)n2N)cc1`: the IC50 is > 35.9 µM (inactive).
For the compound `COC(=O)c1ccc(NC(=O)CSc2nn3c(=O)c(C)nnc3s2)cc1`, the IC50 was > 35.9 µM (inactive).
To `COc1ccc(NC(=O)CS(=O)(=O)c2ccc(C)cc2)c(OC)c1` belongs > 35.9 µM (inactive).
To `CCOc1ccc(OCCC(=O)OCC(=O)Nc2ccc3c(c2)OCCO3)cc1` belongs > 35.9 µM (inactive).
To `CCCc1cc(=O)oc2c(C)c(OCC(=O)NCCN3CCOCC3)ccc12` belongs > 35.9 µM (inactive); to `O=C(CSc1nnc(CNC(=O)c2c(F)cccc2F)o1)Nc1ccc2c(c1)OCCO2`, > 35.9 µM (inactive); to `COCC(=O)NC1CCN(CC(=O)Nc2ccc(OC)cc2[N+](=O)[O-])CC1`, > 35.9 µM (inactive).
As for `Cc1ccc(NC(=O)CSc2sc3c(O)cc(=O)[nH]c3c2C#N)c(F)c1`, the IC50 was > 35.9 µM (inactive).
Next, `Cc1ccc(NC(=O)COC(=O)c2cc(=O)c3ccccc3o2)c(Br)c1`: > 35.9 µM (inactive); `CCOc1ccc(NC(=O)CSc2nnc(C(C)C)n2CC)cc1`: > 35.9 µM (inactive).
With `CCCc1cc(=O)oc2c(C)c(OCC(=O)NCCCn3ccnc3)ccc12`, the IC50 was > 35.9 µM (inactive).
Next, `CC(C)CC1(C)NC(=O)N(CC(=O)Nc2ccc3c(c2)OCCO3)C1=O` (stereo not drawn): > 35.9 µM (inactive); `COc1ccc(NS(=O)(=O)c2ccc(OCC(=O)N3CCN(C)CC3)cc2)cc1Cl`: > 35.9 µM (inactive); `CCn1c(SCC(=O)Nc2ccc(Cl)cc2)nnc1C1CC1`: > 35.9 µM (inactive).
On to `CCOc1ccc(NC(=O)CN2CCN(CC(=O)Nc3ccc(OC)cc3)CC2)cc1`, for which the IC50 is > 35.9 µM (inactive).
Next, `O=C(OCC(=O)N1CCN(C(=O)COC(=O)c2ccc(O)cc2O)CC1)c1ccc(O)cc1O`: > 35.9 µM (inactive); `Cc1ccc(-c2csc(NC(=O)c3ccc([N+](=O)[O-])o3)n2)cc1`: > 35.9 µM (inactive); `COc1ccc(NC(=O)CSc2nc(N)c(-c3ccccc3)c(=O)[nH]2)cc1`: > 35.9 µM (inactive).
Next, `COc1ccccc1Oc1nnnn1-c1ccc(C(N)=O)cc1`: > 35.9 µM (inactive); `O=C(COC(=O)c1ccc[n+]([O-])c1)Nc1ccc([N+](=O)[O-])cc1Cl`: > 35.9 µM (inactive).
Next, `CCOc1ccc(NC(=O)CSc2nccn(-c3ccc4c(c3)OCCO4)c2=O)cc1`: > 35.9 µM (inactive); `CN1CCN(c2ccc(S(=O)(=O)N3CCCCC3)cc2NC(=O)COc2ccc([N+](=O)[O-])cc2)CC1`: > 35.9 µM (inactive); `CC(=O)Nc1ccc(N=c2cc([N+](=O)[O-])cc(Cl)n2O)cc1`: > 35.9 µM (inactive).
In the case of `CCOc1ccc(NC(=O)CSc2nc3[nH]ncc3c(=O)[nH]2)cc1`, the IC50 is > 35.9 µM (inactive).
Next, `COc1ccc(CCNC(=O)COC(=O)Cc2ccccc2[N+](=O)[O-])cc1`: > 35.9 µM (inactive); `Cc1sc(NC(=O)C(C)C)c(C(=O)Nc2ccccc2)c1C`: > 35.9 µM (inactive); `COc1ccc(NC(=O)CSc2sc3c(O)cc(=O)[nH]c3c2C#N)c(OC)c1`: > 35.9 µM (inactive).
With `O=C(NCC1CCCO1)c1ccc(NC(=O)c2cccc([N+](=O)[O-])c2)cc1` (stereo not drawn), the IC50 was > 35.9 µM (inactive).
Next, `Cc1cc(Br)ccc1NC(=O)CSc1nnc(CN2CCOCC2)n1C`: > 35.9 µM (inactive); `COC(=O)c1ccc(NC(=O)CSc2ccc(-c3ccccn3)nn2)cc1`: > 35.9 µM (inactive).
Next, `O=C(COC(=O)c1ccc(=O)n(Cc2ccccc2)n1)Nc1ccc2c(c1)OCCO2`: > 35.9 µM (inactive).
Next, `CCOc1ccc(OCCN2C(=O)NC(Cc3c[nH]c4ccccc34)C2=O)cc1` (stereo not drawn): > 35.9 µM (inactive); `Cc1cc(C)c2sc(NC(=O)c3ccc([N+](=O)[O-])o3)nc2c1`: > 35.9 µM (inactive).

The values are drawn from PubChem BioAssay AID651975 (The Scripps Research Institute Molecular Screening Center, 2013).
